From ChEMBL document CHEMBL5154780, “Target Fishing Reveals a Novel Mechanism of 1,2,4-Oxadiazole Derivatives Targeting Rpn6, a Subunit of 26S Proteasome” (J Med Chem, 2022)
pKd: −log10 of the molar value. Calls of active or inactive are those of the source. No cut-off for these calls is given here. Where a SMILES comes first, the peptide text is derived from it. The star is where a group is joined. Cbz = O=C(OCc1ccccc1)*

How the values were obtained:
[1] = test system: HepG2-ARE-C8; assay: Activation of Nrf2-ARE pathway in human HepG2-ARE-C8 cells assessed as fold upregulation of ARE-inducing luciferase activity at 10 uM measured after 24 hrs by luciferase reporter gene assay; type: cell-based; conditions: filed as activator
[2] = test system: HepG2-ARE-C8; assay: Activation of Nrf2-ARE pathway in human HepG2-ARE-C8 cells assessed as fold upregulation of ARE-inducing luciferase activity at 20 uM measured after 24 hrs by luciferase reporter gene assay; type: cell-based; conditions: filed as activator
[3] = test system: HepG2-ARE-C8; assay: Activation of Nrf2-ARE pathway in human HepG2-ARE-C8 cells assessed as fold upregulation of ARE-inducing luciferase activity at 40 uM measured after 24 hrs by luciferase reporter gene assay; type: cell-based; conditions: filed as activator
[4] = test system: HepG2-ARE-C8; assay: Activation of Nrf2-ARE pathway in human HepG2-ARE-C8 cells assessed as fold upregulation of ARE-inducing luciferase activity at 80 uM measured after 24 hrs by luciferase reporter gene assay; type: cell-based; conditions: filed as activator
[5] = test system: HepG2-ARE-C8; assay: Activation of Nrf2-ARE pathway in human HepG2-ARE-C8 cells assessed as fold upregulation of ARE-inducing luciferase activity at 160 uM measured after 24 hrs by luciferase reporter gene assay; type: cell-based; conditions: filed as activator
[6] = target: T1, Nuclear factor erythroid 2-related factor 2 (Rattus norvegicus) (UniProt O54968); assay: Activation of Nrf2 in rat PC-12 cells assessed as upregulation of HO-1 protein expression measured after 24 hrs by Western blot analysis; type: cell-based; conditions: filed as activator, dose 10-40 µM, DDE = dose-dependent effect
T1 sequence (whole entry): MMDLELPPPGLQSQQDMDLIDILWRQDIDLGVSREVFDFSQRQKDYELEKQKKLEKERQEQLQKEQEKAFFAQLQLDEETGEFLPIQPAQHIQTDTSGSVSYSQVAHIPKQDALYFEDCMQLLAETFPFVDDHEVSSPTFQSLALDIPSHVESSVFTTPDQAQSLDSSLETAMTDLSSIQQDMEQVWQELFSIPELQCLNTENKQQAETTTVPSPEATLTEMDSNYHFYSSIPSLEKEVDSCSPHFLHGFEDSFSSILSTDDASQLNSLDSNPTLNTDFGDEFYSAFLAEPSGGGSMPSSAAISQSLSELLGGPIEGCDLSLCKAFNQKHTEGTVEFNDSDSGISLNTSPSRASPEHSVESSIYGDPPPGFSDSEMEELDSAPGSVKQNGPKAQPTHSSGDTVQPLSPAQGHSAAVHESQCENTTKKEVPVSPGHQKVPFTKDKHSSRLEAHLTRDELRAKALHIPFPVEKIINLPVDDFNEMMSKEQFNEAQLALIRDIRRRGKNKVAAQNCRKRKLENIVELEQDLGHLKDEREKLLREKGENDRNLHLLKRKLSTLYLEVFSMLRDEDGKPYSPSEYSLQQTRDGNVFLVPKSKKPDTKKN

[7] = target: T1, Nuclear factor erythroid 2-related factor 2 (Rattus norvegicus); assay: Activation of Nrf2 in rat PC-12 cells assessed as upregulation of NQO1 protein expression measured after 24 hrs by Western blot analysis; type: cell-based; conditions: filed as activator, dose 10-40 µM, DDE = dose-dependent effect
[8] = target: T1, Nuclear factor erythroid 2-related factor 2 (Rattus norvegicus); assay: Activation of Nrf2 in rat PC-12 cells assessed as upregulation of Nrf2 protein expression measured after 24 hrs by Western blot analysis; type: cell-based; conditions: filed as activator, dose 10-40 µM, DDE = dose-dependent effect
[9] = test system: PC-12; assay: Cytoprotective activity against H2O2-induced oxidative damage in rat PC-12 assessed as increase in cell viability preincubated for 24 hrs followed by H2O2 stimulation for 3 hrs by MTT assay; type: functional, cell-based; conditions: dose 5-80 µM, DDE = dose-dependent effect
[10] = test system: THP-1; assay: Antiinflammatory activity in PMA-differentiated and LPS-stimulated human THP-1 cell model assessed as inhibition of NLRP3 inflammasome-driven IL-1beta production at 15 uM incubated for 24 hrs followed by LPS stimulation for 3 hrs and ATP addition for 1 hr by ELISA; type: functional; design: scale not given: the % may be the effect or the level left
[11] = test system: THP-1; assay: Antiinflammatory activity in PMA-differentiated and LPS-stimulated human THP-1 cell model assessed as inhibition of NLRP3 inflammasome-driven IL-1beta production at 30 uM incubated for 24 hrs followed by LPS stimulation for 3 hrs and ATP addition for 1 hr by ELISA; type: functional; design: scale not given: the % may be the effect or the level left
[12] = test system: THP-1; assay: Antiinflammatory activity in PMA-differentiated and LPS-stimulated human THP-1 cell model assessed as inhibition of NLRP3 inflammasome-driven IL-1beta production at 45 uM incubated for 24 hrs followed by LPS stimulation for 3 hrs and ATP addition for 1 hr by ELISA; type: functional; design: scale not given: the % may be the effect or the level left
[13] = Cytotoxicity against human THP-1 cells assessed as reduction in cell viability measured after 24 hrs by MTT assay; type: toxicity, cell-based
[14] = target: 26S proteasome non-ATPase regulatory subunit 11 (Homo sapiens, UniProt O00231); assay: Binding affinity to biotinylated recombinant Rpn6 (unknown origin) assessed as dissociation constant by biolayer interferometry analysis
Chain of 26S proteasome non-ATPase regulatory subunit 11 (O00231 whole entry): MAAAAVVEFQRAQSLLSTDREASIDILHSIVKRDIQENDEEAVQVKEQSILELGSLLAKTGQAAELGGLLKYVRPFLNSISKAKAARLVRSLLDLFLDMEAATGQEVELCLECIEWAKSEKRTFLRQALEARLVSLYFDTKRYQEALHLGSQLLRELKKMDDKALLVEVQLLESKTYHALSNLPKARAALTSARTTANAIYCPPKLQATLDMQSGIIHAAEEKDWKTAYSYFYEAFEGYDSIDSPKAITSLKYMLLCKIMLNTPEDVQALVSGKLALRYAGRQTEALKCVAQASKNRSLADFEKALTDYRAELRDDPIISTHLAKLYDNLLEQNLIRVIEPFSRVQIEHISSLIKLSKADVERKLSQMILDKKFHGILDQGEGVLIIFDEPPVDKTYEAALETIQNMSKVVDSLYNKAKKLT

[15] = target: 26S proteasome non-ATPase regulatory subunit 11 (Rattus norvegicus) (UniProt F1LMZ8); assay: Binding affinity to biotinylated recombinant Rpn6 in rat PC-12 cells at 100 to 200 uM incubation for overnight by pull-down assay based SDS-PAGE analysis; type: cell-based; conditions: filed as activator, dose 100-200 µM, DDE = dose-dependent effect
Chain of 26S proteasome non-ATPase regulatory subunit 11 (Rattus norvegicus) (F1LMZ8 whole entry): as the sequence (O00231 whole entry) above

[16] = target: T1, Nuclear factor erythroid 2-related factor 2 (Rattus norvegicus); assay: Activation of Nrf2 in rat PC-12 cells assessed as reduction of Nrf2 in cytoplasm at 20 uM measured after 4 hrs by western blot analysis; type: cell-based; conditions: filed as activator
[17] = target: T1, Nuclear factor erythroid 2-related factor 2 (Rattus norvegicus); assay: Activation of Nrf2 in rat PC-12 cells assessed as upregulation of Nrf2 in nucleus at 20 uM measured after 4 hrs by western blot analysis; type: cell-based; conditions: filed as activator
[18] = target: T1, Nuclear factor erythroid 2-related factor 2 (Rattus norvegicus); assay: Inhibition of Nrf2 degradation in rat PC-12 cells assessed as accumulation of ubiquitinated Nrf2 at 10 uM incubated for 6 hrs by Western blot analysis; type: cell-based
[19] = test system: PC-12; assay: Induction of cell membrane permeability in rat PC-12 cells at 60 uM measured after 10 hrs by fluorescence microscopic analysis; type: cell-based
[20] = target: 26S proteasome non-ATPase regulatory subunit 11 (Rattus norvegicus) (UniProt F1LMZ8); assay: Binding affinity to recombinant Rpn6 in rat PC-12 cells at 60 uM measured after 12 hrs by DAPI staining based fluorescence microscope assay; type: cell-based; conditions: filed as activator
[21] = target: T1, Nuclear factor erythroid 2-related factor 2 (Rattus norvegicus); assay: Inhibition of Nrf2 degradation in rat PC-12 cells assessed as accumulation of ubiquitinated Nrf2 at 40 uM incubated for 6 hrs by Western blot analysis; type: cell-based
[22] = target: T1, Nuclear factor erythroid 2-related factor 2 (Rattus norvegicus); assay: Inhibition of Nrf2 degradation in rat PC-12 cells assessed as accumulation of ubiquitinated Nrf2 at 40 uM incubated for 6 hrs in presence of proteasome inhibitor MG132 by Western blot analysis; type: cell-based
[23] = target: T1, Nuclear factor erythroid 2-related factor 2 (Rattus norvegicus); assay: Inhibition of Nrf2 degradation in rat PC-12 cells assessed as increase in ubiquitinated Nrf2 at 40 uM incubated for 6 hrs by co-immunoprecipitation based Western blot analysis; type: cell-based
[24] = target: T1, Nuclear factor erythroid 2-related factor 2 (Rattus norvegicus); assay: Inhibition of Nrf2 degradation in rat PC-12 cells assessed as increase in ubiquitinated Nrf2 at 40 uM incubated for 6 hrs in presence of proteasome inhibitor MG132 by co-immunoprecipitation based Western blot analysis; type: cell-based

SMILES | fold change (FC) [1] | fold change (FC) [2] | fold change (FC) [3] | fold change (FC) [4] | fold change (FC) [5] | Activity [10] [%] | Activity [11] [%] | Activity [12] [%] | IC50 at 24 h [13] [µM] | other results
Cc1ccc(-c2noc(-c3ccc(F)cc3NC(=O)CCCCCNC(=O)CCCC[C@@H]3SC[C@@H]4NC(=O)N[C@@H]43)n2)cn1 | 4.96 | 5.59 | 6.69 | 7.1 | 11.8 | 33.81 | 64.61 | 97.72 | > 100 | Activity [6]: Dde; Activity [7]: Dde; Activity [8]: Dde; Activity [9]: Dde; pKd [14]: 5.86; Activity [15]: Dde; Activity [16]: Active; Activity [17]: Active
CC(C)C[C@@H](C=O)NC(=O)[C@H](CC(C)C)NC(=O)[C@H](CC(C)C)NC(=O)OCc1ccccc1 (Cbz-Leu-Leu-Leu-aldehyde) | – | – | – | – | – | – | – | – | – | Activity [18]: Active
O=C(O)CCCC[C@@H]1SC[C@@H]2NC(=O)N[C@@H]21 | 1.55 | 1.12 | 1.18 | 1.45 | 1.55 | – | – | – | – | –
Cc1ccc(-c2noc(-c3ccc(F)cc3)n2)cn1 | 2.08 | 2.75 | 7.14 | 31.7 | 29.6 | 49.86 | 53.91 | 85.46 | > 100 | Activity [6]: Dde; Activity [7]: Dde; Activity [8]: Dde; Activity [16]: Active; Activity [17]: Active
Cc1ccc(-c2noc(-c3ccc(F)cc3NC(=O)CCCCCNC(=S)Nc3ccc4c(c3)C(=O)OC43c4ccc(O)cc4Oc4cc(O)ccc43)n2)cn1 | 2.62 | 2.28 | 2.3 | 2.71 | 6.42 | 67.9 | 77.63 | 89.34 | > 100 | Activity [19]: Active; Activity [20]: Active
CC(C)(C)c1cc(O)ccc1O [E319] | 2.94 | 3.13 | 2.98 | 12 | 15.9 | 50.88 | 58.58 | 98.29 | > 100 | –
Fc1ccc(-c2nc(-c3ccc4nc[nH]c4c3)no2)cc1 | 4.53 | 4.19 | 7.5 | 19.3 | 31.5 | 87.24 | 98.39 | 102.6 | > 100 | pKd [14]: 5.07; Activity [21]: Active; Activity [22]: Active; Activity [23]: Active; Activity [24]: Active
CCNC(=O)CCCCCNC(C)=O | 1.17 | 1.17 | 1.41 | 1.22 | 1.22 | -2.73 | 3.52 | 2.89 | > 100 | –
